pIC50, pKi: −log10 of the molar value. Read-outs that look alike come from different tables or passages of the source.
How the values were obtained:
calcium channels = assay: [^3 H]-nitrendipine binding to rat brain membrane
dog coronary artery = assay: Effect on 3,4-diaminopyridine (3,4-DAP)-induced rythmic contraction; assay type: cell-based; settings: Canis lupus familiaris, read-out: IC50, 3,4-DAP contraction
Experimental: The ring segments were cannulated with two triangle stainless-steel hooks and suspended vertically in Krebs-Henseleit solution under the same condition described previously. Preparations were set up under a resting tension of 1.0 g and rhythmic contractions were induced by application of 10 mM 3,4-DAP. Test compound was cumulatively added into the medium. IC50 was estimated from dose-response curves (Table 2, column 2).

rabbit thoracic aorta = assay: Effect on KCl-induced contraction of rabbit aorta; settings: Oryctolagus cuniculus, read-out: IC50, K contraction
left coronary artery = assay: Coronary vasodilating effects in dogs (intracoronary); assay type: in vivo, mongrel dogs
Experimental: Mongrel dogs of either sex were anesthetized and ventilated as previously described. A thoracotomy was performed at the 4th intercostal space. Following an intravenous injection of heprin (1000 units/kg), blood from the distal end of the cannulated carotid artery was pumped into circumflex branch of the left coronary artery using a servocontrolled peristaltic pump which maintained a constant perfusion pressure of 120 mmHg by means of a pump controller. An electromagnetic flow probe was inserted in the circit to record blood flow through the cannulated coronary artery. The test compounds were administered directly into the rubber tubing connected close to the coronary artery cannula.

[1] = tested on: mean arterial blood pressure (MBP) and coronary blood flow (Cor. BF); assay: Hemodynamic effects in anesthetized open-chest dogs (i.v.); assay type: in vivo, mongrel dogs; settings: Canis lupus familiaris; for change in vivo at 0.1 mg/kg: iv; for change in vivo at 0.3 mg/kg: 0.3 mg/kg iv, anesthetized dogs
Experimental: Mongrel dogs of either sex were anesthetized with pentobarbital sodium (30 mg/kg iv). The animals were artificially ventilated with room air. The chest was opened at the left 4th intercostal space. Mean arterial blood pressure (MBP), heart rate (HR), left ventricular pressure (LVP), max. dLVP/dt, mean pulmonary arterial blood pressure (MPAP), cardiac output (CO) and coronary blood flow (Cor. BF) were measured. The test compounds were injected into the femoral vein. […] BF from control values induced by intravenous injection of test compounds.

Beta-adrenoceptor [2] = target: T1, Beta-adrenoceptor (Rattus norvegicus, UniProt P18090); assay: cell-based; settings: isolated rat right atria, (-)-isoproterenol-induced positive chronotropy; read-out: KB (antagonist dissociation constant)
T1 sequence (P18090 whole entry): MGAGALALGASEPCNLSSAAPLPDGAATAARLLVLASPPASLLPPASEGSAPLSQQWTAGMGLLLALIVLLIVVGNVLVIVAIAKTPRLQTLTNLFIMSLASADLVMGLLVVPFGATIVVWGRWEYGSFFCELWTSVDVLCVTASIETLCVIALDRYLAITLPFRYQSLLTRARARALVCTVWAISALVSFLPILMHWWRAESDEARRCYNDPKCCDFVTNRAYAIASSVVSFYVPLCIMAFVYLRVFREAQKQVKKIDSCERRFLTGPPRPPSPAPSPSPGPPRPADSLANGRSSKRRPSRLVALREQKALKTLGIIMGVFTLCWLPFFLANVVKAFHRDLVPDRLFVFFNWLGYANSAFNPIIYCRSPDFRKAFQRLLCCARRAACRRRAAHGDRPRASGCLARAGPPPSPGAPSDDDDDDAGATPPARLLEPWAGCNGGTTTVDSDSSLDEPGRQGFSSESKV
Description: Beta-adrenoceptor blocking effect of test compounds was estimated by antagonism of (-)-isoproterenol-induced positive chronotropy.

Beta-adrenoceptor [3] = target: T1, Beta-adrenoceptor; assay: Intrinsic sympathomimetic activity (ISA) in reserpinized rats; assay type: in vivo, male Wistar rats; parameters: The rats were anesthetized with pentobarbital sodium; from tissue; host or cells: heart in the living anesthetized male Wistar rat (reserpine-pretreated, vagotomized); settings: reserpine-pretreated rats, iv
Experimental: (§1) The rats were pretreated with reserpine (8 mg/kg ip), 18 hr before experiments. […] The heart rate was measured with a cardiotachometer triggered by the QRS of the ECG (lead II) and recorded on a polygraph. After the Control response to isoproterenol at a dose of 0.1 μg/kg iv was obtained, the test compound was injected iv in increasing doses at 20 min intervals.
In this series of experiments, intrinsic sympathomimetic activity (ISA) was also evaluated.

Beta-adrenoceptor [4] = target: T1, Beta-adrenoceptor; assay: Beta-adrenoceptor blocking effect in reserpinized rats (isoproterenol chronotropy); assay type: in vivo, male Wistar rats; parameters: The rats were anesthetized with pentobarbital sodium; from tissue; host or cells: heart in the living anesthetized male Wistar rat (reserpine-pretreated, vagotomized); settings: isoproterenol 0.1 μg/kg iv, cumulative iv doses, read-out: Beta-Blocking ED50 (50% blockade of positive chronotropic response to isoproterenol)
Experimental: as §1

[5] = dog coronary artery, 10 mM 3,4-DAP
[6] = read-out: percent change of Cor. BF from control
[7] = read-out: percent change of MBP from control

Row | SMILES | pIC50 (calcium channels) | pKi (calcium channels) | Slope, ^3 H-Nitrendipine binding (calcium channels) | pIC50 (dog coronary artery; [5]) | pIC50 (rabbit thoracic aorta) | pIC50 (dog coronary artery) | ED100 pap (dose for 100% increase of Cor. BF; maximum response to papaverine 300 μg ia = 100%) (left coronary artery) [μg ia] | change in vivo at 0.1 mg/kg [1, 6] [%] | change in vivo at 0.1 mg/kg [1, 7] [%] | Duration of action of coronary vasodilating effect (left coronary artery; intracoronary (ia)) [min] | Kb (Beta-adrenoceptor [2]) [nM] | ISA (increase in HR) (Beta-adrenoceptor [3]) | ED50 (Beta-adrenoceptor [4]) [mg/kg] | change in vivo at 0.3 mg/kg [1, 6] [%] | change in vivo at 0.3 mg/kg [1, 7] [%]
1 | COC(=O)C1=C(C)NC(C)=C(C(=O)OCCN(C)Cc2ccccc2)C1c1cccc([N+](=O)[O-])c1 (stereo not shown) [Nicardipine, reference compound] | 8.80 | 9.05 | 0.90 | 8.68 | 9.00 |  |  |  |  |  |  |  |  |  | 
2 | COc1ccc(CCN(C)CCCC(C#N)(c2ccc(OC)c(OC)c2)C(C)C)cc1OC (stereo not shown) [Verapamil, reference compound] |  |  |  |  | 7.12 | 6.90 | 8 | 95 | -23 |  |  |  |  |  | 
3 | COC(=O)C1=C(C)NC(C)=C(C(=O)OCCCCCCNCC(O)COc2ccccc2)C1c1cccc([N+](=O)[O-])c1.Cl (stereo not shown) [Example 12, 6-(2-hydroxy-3-phenoxy-propylamino)hexyl methyl 2,6-dimethyl-4-(m-nitro-phenyl)-1,4-dihydropyridine-3,5-dicarboxylate hydrochloride] | 7.92 | 8.21 | 1.38 | 7.72 | 7.48 |  | 100 |  |  | > 60 | 63 | - | 0.6 | 45 | -26
